# Experimental data published in PMC3402633 (2012).
# pKi: −log10 of the molar value.
# Biological target: tubulin (αβ-tubulin heterodimer)
# Experiment: competition with [3H]colchicine binding
# Parameters: species or system Bos taurus
compound,measurement,value
"COC(=O)C1=CC[C@@]23CC[C@@H]([C@@](C)(/C=C/C=C(\C)C(=O)O)OC2=O)[C@@]3(OC(C)=O)CC1 [PAB, pseudolaric acid B]",pKi,4.82 to 4.92
